What was measured:
[1] = system: DH response; experiment: Modulator assay methods of the '379 patent (amplifier activity, DH test); format: in vivo, human; conditions: other moieties in effluents of Example 6B process
[2] = system: DH skin reaction to tetanus toxoid; design: species or system human; conditions: in vivo
[3] = system: IL-2 production in response to mitogen PHA; experiment: IL-2 in vitro test (PHA-stimulated IL-2 production); format: cell-based, human; conditions: optimal concentration of TGG
Description: The production of IL-2 in response to mitogen was characterized by the existence of the same optimal concentration phenomenon (paradoxical effect) described above.

## Gly-Gly
[1]
  immunological activity as assayed by DH test: None of these other moieties appeared to possess immunological activity

## Ser-Phe
[1]
  immunological activity as assayed by DH test: None of these other moieties appeared to possess immunological activity

## Tyrosylglycylglycine [TGG]
[2]
  optimum concentration for maximum immune effect: ~3 fM
[3]; subject #1
  ratio of PHA-stimulated IL-2 production with TGG added to without TGG: 1.45
[3]; subject #2
  ratio of PHA-stimulated IL-2 production with TGG added to without TGG: 2.55

— patent publication EP0230052B1, “Immunoamplifiers and related Compositions” (Gottlieb, Arthur A., priority 1985, dated 1987)
